According to patent EP1421935A1 (Casini, Angela, priority 2002, dated 2004):
pKi: −log10 of the molar value. ≈ marks a conversion by molar mass, not a printed value. Marks after values point to notes of the source that are not given here.

Legend:
[1] = drug distribution in ocular fluids and tissues after topical administration; format: in vivo, albino rabbits; conditions: mean ± standard deviation (n= 3)
hCA II = hCA II (Homo sapiens, UniProt P00918); assay: CA inhibition, esterase method (4-nitrophenylacetate hydrolysis)
Method: (§1) Stock solutions of inhibitor (1 mM) are prepared in distilled-deionized water with 10-20% (v/v) DMSO (which is not inhibitory at these concentrations) and dilutions up to 0.01 nM are done thereafter with distilled-deionized water. Inhibitor and enzyme solutions are preincubated together for 10 min at room temperature prior to assay, in order to allow for the formation of the E-I complex.

[2] = solubility in aqueous buffer (UV of saturated solution); conditions: 25 °C, pH 7.4, aqueous buffer, thermodynamic from solid
Method: The determination of solubility in aqueous buffer is performed as follows. […] The UV absorption maximum of each compound is determined (with a Cary 3 spectrophotometer) eventually diluting the solution (with MeOH) as necessary. […] The obtained saturated solution is filtered in order to remove solid compound through a Millipore 0.45 µm filter and scanned by UV at the wavelength of the absorption maximum previously determined. Total solubility is determined by the relationship: C' = A'C/A, where C = concentration of standard solution (mg/mL); A = absorbance of standard solution; A' = absorbance of the saturated solution; C' = concentration of the saturated solution (mg/mL).

bCA IV = biological target: T1, bCA IV (Bos taurus, UniProt Q95323); assay: CA inhibition, esterase method (4-nitrophenylacetate hydrolysis)
T1 sequence (Q95323 19-284): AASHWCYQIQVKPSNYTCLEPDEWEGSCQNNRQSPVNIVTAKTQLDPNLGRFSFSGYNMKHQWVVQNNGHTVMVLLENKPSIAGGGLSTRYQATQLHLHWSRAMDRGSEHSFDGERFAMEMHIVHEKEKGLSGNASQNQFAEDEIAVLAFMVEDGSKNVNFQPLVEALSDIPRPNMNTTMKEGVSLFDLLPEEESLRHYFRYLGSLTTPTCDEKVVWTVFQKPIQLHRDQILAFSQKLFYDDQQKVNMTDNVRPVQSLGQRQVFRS
Method: as §1

hCA I = hCA I (Homo sapiens, UniProt P00915); assay: as above
Chain of hCA I (P00915 whole entry): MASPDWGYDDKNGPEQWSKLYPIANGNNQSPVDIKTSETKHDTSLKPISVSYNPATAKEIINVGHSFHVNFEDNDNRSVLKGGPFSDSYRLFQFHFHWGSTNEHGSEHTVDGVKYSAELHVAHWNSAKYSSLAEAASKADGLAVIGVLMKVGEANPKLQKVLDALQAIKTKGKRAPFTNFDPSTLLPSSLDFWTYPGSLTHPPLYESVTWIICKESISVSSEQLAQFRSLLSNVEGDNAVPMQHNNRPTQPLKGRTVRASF
Method: as §1

[3] = system: IOP of normotensive rabbits; assay: tonometric measurement of IOP after topical administration; format: in vivo, New Zealand albino rabbits; conditions: for IOP returns to baseline values after ... from administration: topical 2% solution (Fig. 2); for Δ IOP ± SE (mm Hg) 30 min: 30 min after one drop (50 µL) of 2% solution; for Δ IOP ± SE (mm Hg) 30 min / Δ IOP ± SE (mm Hg) 60 min / Δ IOP ± SE (mm Hg) 90 min: topical, IOP control eye - IOP treated eye (N = 3); for Δ IOP ± SE (mm Hg) 60 min: 60 min after one drop (50 µL) of 2% solution; for Δ IOP ± SE (mm Hg) 90 min: 90 min after one drop (50 µL) of 2% solution
Method: Tonometric measurement of IOP are performed as follows.
Adult male New Zealand albino rabbits weighing 3-3.5 kg are used in the experiments. Three animals are used for each inhibitor studied. The experimental procedures conform to the Association for Research in Vision and Ophthalmology Resolution on the use of animals. The rabbits are kept in individual cages with food and water provided ad libitum and maintained on a 12 h light/dark cycle in a temperature controlled room, at 22-26 °C. Solutions and suspensions of inhibitors (2 %, by weight, as hydrochlorides, or sodium carboxylates) are made in distilled deionized water. The pH of these solutions is in the range of 5.5 - 7.4.
IOP is measured using a Digilab 30R pneumatonometer (BioRad, Cambridge, MA, USA) as described by Maren et al. (Maren et al., Exp. Eye Res. 55:73-79, 1992; Brechue et al., Invest. Ophthalmol. Vis. Sci. 34:2581-2587,1993). The pressure readings are matched with two-point standard pressure measurements at least twice each day using a Digilab Calibration verifier. All IOP measurements are done by the same investigator with the same tonometer. One drop of 0.2 % oxybuprocaine hydrochloride (novesine, Sandoz) diluted 1:1 with saline is instilled in each eye immediately before each set of pressure measurements. IOP is measured three times at each time interval, and the means reported. IOP is measured first immediately before drug administration, then at 30 min after the instillation of the pharmacological agent, and then each 30 minutes for a period of 4-6 hours. For all IOP experiments drug is administered to only one eye, leaving the contralateral eye as an untreated control. The ocular hypotensive activity is expressed as the average difference in IOP between the treated and control eye, in this way minimizing the diurnal, seasonal and inter-individual variations commonly observed in the rabbit (Id.). All data are expressed as mean ± SE. Ocular hypertension is elicited in the right eye of albino rabbits by the injection of α-chymotrypsin (from Sigma) as described by Sugrue et al. (Sugrue et al., Br. J. Pharmacol. 99:59-64, 1990). The IOP of operated animals is checked after approximately four weeks, and animals with an elevated pressure of 30-36 mm Hg are used at least one month after the injection of α-chymotrypsin.
In vivo IOP lowering experiments are done in normotensive and glaucomatous rabbits, with many of the new compounds reported here, due to their strong CA II and CA IV inhibitory properties, such as B7, B10-B13, B15, B18-B22, B25, B27, B28, B33, B37, and A40. […] Measurements are at 30, 60 and 90 min after administration Table 3.

[4] = transcorneal penetration of drugs (in vitro corneal permeability); conditions: rate constant of transfer across excised rabbit cornea, pH 7.4; for kin x 10^3 (hr^-1) No epithelium: denuded epithelium; for kin x 10^3 (hr^-1) Cornea intact: intact epithelium
Method: The determination of transcorneal penetration of drugs is performed as follows. […] Excised rabbit corneas with either intact or denuded epithelium are used in these experiments. The pH is 7.4 and exposed area is 1.2 cm^2. Concentrations of drug of 40 - 2000 µM are placed in the epithelial chamber and samples of fluid are collected from the endothelial chamber at different intervals, up to 4 hr.

[5] = chloroform-buffer partition coefficient; format: physicochemical; conditions: pH 7.4 phosphate buffer, B compounds as sodium salts
Method: The determination of partition coefficient is performed as follows. Chloroform - buffer partition coefficients are obtained by equilibrating the test compound between chloroform and 0.1-ionic strength pH 7.4 phosphate buffer. The concentration in each phase is determined by UV spectrophotometry or HPLC.

[6] = 1h after corneal application of one drop (50 µL) of 2% solution
[7] = 2h after corneal application of one drop (50 µL) of 2% solution

Row | SMILES | pKi (hCA II) | solubility ([2]; phosphate buffer) [mM] | pKi (bCA IV) | pKi (hCA I) | kin x 10^3 (hr^-1) No epithelium [4] [hr^-1] | kin x 10^3 (hr^-1) Cornea intact [4] [hr^-1] | Log P [5] | other results
1 | NS(=O)(=O)c1ccc(CNC(=S)NC(C(=O)O)C(O)c2ccccc2)cc1 (stereo not shown) [B20] | 9.00 | 51 (≈ 20.9 mg/mL) | 8.15 | 7.70 | 10.7 | 4.9 | 2.518 | Drug concentration (µM) Aqueous humor [1, 6]: 205 ± 12 µM; Drug concentration (µM) Ciliary process [1, 6]: 49 ± 5 µM; Drug concentration (µM) Cornea [1, 6]: 133 ± 10 µM; Drug concentration (µM) Aqueous humor [1, 7]: 53 ± 5 µM; Drug concentration (µM) Ciliary process [1, 7]: 15 ± 1 µM; Drug concentration (µM) Cornea [1, 7]: 70 ± 9 µM; IOP returns to baseline values after ... from administration [3]: 5 to 6 h
2 | NS(=O)(=O)c1ccc(CNC(=S)Nc2ccccc2C(=O)O)cc1 [B11] | 7.96 | 41 (≈ 15 mg/mL) | 7.64 | 7.27 | 8.3 | 2.9 | 1.238 | 
3 | NS(=O)(=O)c1ccc(CNC(=S)NC(CO)C(=O)O)cc1 (stereo not shown) [B19] | 8.70 | 70 (≈ 23.3 mg/mL) | 8.05 | 7.64 | 8.5 | 3.3 | 1.662 | IOP returns to baseline values after ... from administration [3]: 5 to 6 h
4 | NS(=O)(=O)c1ccc(CNC(=S)NC(C(=O)O)c2ccccc2)cc1 (stereo not shown) [B18] | 8.30 | 59 (≈ 22.4 mg/mL) | 7.92 | 7.40 | 12.0 | 5.6 | 3.721 | 
5 | NS(=O)(=O)c1ccc(CNC(=S)NC(CS)C(=O)O)cc1 (stereo not shown) [B22] | 8.52 | 65 (≈ 22.7 mg/mL) | 8.10 | 7.68 | 0.9 | 0.4 | 0.124 | 
6 | NC(=O)CC(NC(=S)NCc1ccc(S(N)(=O)=O)cc1)C(=O)O (stereo not shown) [B28] | 8.30 |  | 8.05 | 7.66 |  |  |  | IOP returns to baseline values after ... from administration [3]: 5 to 6 h
7 | CC(=O)/N=c1/sc(S(N)(=O)=O)nn1C [Methazolamide, methazolamide, reference compound] |  |  |  |  | 13 | 1.90 | 0.06 | 
8 | NS(=O)(=O)c1ccc(CNC(=S)Nc2cccc(C(=O)O)c2)cc1 [B12] | 8.00 | 40 (≈ 14.6 mg/mL) | 7.54 | 7.42 | 8.7 | 3.0 | 1.313 | 
9 | CCOc1ccc2nc(S(N)(=O)=O)sc2c1 [Ethoxzolamide, ethoxzolamide, reference compound] |  |  |  |  |  |  | 1.40 | solubility at 3 h ([2]; phosphate buffer): 0.04 mM (≈ 0.0103 mg/mL)
10 | NS(=O)(=O)c1ccc(CNC(=S)Nc2ccc(C(=O)O)cc2)cc1 [B13] | 8.05 | 46 (≈ 16.8 mg/mL) | 7.68 | 7.33 | 9.1 | 3.3 | 1.428 | Drug concentration (µM) Aqueous humor [1, 6]: 204 ± 13 µM; Drug concentration (µM) Ciliary process [1, 6]: 50 ± 7 µM; Drug concentration (µM) Cornea [1, 6]: 123 ± 9 µM; Drug concentration (µM) Aqueous humor [1, 7]: 62 ± 4 µM; Drug concentration (µM) Ciliary process [1, 7]: 23 ± 2 µM; Drug concentration (µM) Cornea [1, 7]: 76 ± 5 µM; Δ IOP ± SE (mm Hg) 30 min [3]: 1.2±0.15 mm Hg; Δ IOP ± SE (mm Hg) 60 min [3]: 7.0±0.15 mm Hg; Δ IOP ± SE (mm Hg) 90 min [3]: 10.3±0.20 mm Hg
11 | CCN[C@H]1C[C@H](C)S(=O)(=O)c2sc(S(N)(=O)=O)cc21 [Dorzolamide, dorzolamide, reference compound] |  |  |  |  | 5.2 | 3.0 | 2.0^e | solubility at 3 h ([2]; phosphate buffer): 60 mM (≈ 19.5 mg/mL); Δ IOP ± SE (mm Hg) 30 min [3]: 2.2±0.15 mm Hg; Δ IOP ± SE (mm Hg) 30 min ([3]; listed as dorzolamide): 2.2 mm Hg; Δ IOP ± SE (mm Hg) 60 min [3]: 4.1±0.15 mm Hg; Δ IOP ± SE (mm Hg) 60 min ([3]; listed as dorzolamide): 4.1 mm Hg; Δ IOP ± SE (mm Hg) 90 min [3]: 2.7±0.10 mm Hg
12 | NS(=O)(=O)c1ccc(CNC(=S)NCCC(=O)NC(Cc2cnc[nH]2)C(=O)O)cc1 (stereo not shown) [B40] | 8.40 |  | 8.05 | 7.66 | 5.9 | 2.8 | 0.933 | solubility at 3 h [2]: 57 mM (≈ 25.9 mg/mL)
